Measurements from paper PMC10761119, “Phosphorylation-state dependent intraneuronal sorting of Aβ differentially impairs autophagy and the endo-lysosomal system” (Autophagy, 2023).

Columns and labels:
SH-SY5Y cells = assay: Autophagic flux with tandem reporter mCherry-GFP-LC3B; format: cell-based, human; conditions: Aβ 1 µM, 24 h, n = 8, N = 4; for Mander's overlap coefficient, R, of Aβ with GFP-positive vesicles / Mander's overlap coefficient, R, of Aβ with mCherry-positive vesicles: mean ± S.D.
Description: SH-SY5Y cells were transfected with either GFP-LC3-LC3Δ-RFP or mCherry-GFP-LC3B tandem constructs (0.5 μg/well +1 µl transfection reagent − 24 well plate) with Lipofectamine 2000 (Life Technologies, 11668019) in OptiMEM (Life Technologies, 11058021) in DMEM/F-12, FCS^− PS^− media. After 8 h, FCS^− PS^− media was changed to normal culture media, respectively. Transfection efficiency was around 50–60% in all analyzed coverslips.
SH-SY5Y cells seeded on D1, were treated with Aβ variants (1 μM) on D3 in DMEM/F-12 media without serum and antibiotics. Control treatment included treatment with equal volume of 10 mM NaOH solution used for preparing the Aβ stock solutions, in respective cell culture medium. SH-SY5Y cells, after 16 h of transient expression of the reporter constructs, were treated with different Aβ variants, autophagy modulator substrates and respective controls in DMEM/F-12, FCS^− PS^− media for the mentioned time points. After treatment, cells were washed twice with PBS and with 0.025% trypsin-EDTA in PBS to get rid of cell bound Aβ, followed by subsequent washings with PBS again. Cells were either collected by scraping using a cell-scraper or fixed with 4% PFA-PBS for 15 min at RT, for further immunocytochemistry experiments. Collected treatment media was centrifuged at 1000 g for 5 min, pellet discarded and supernatant frozen at −20°C until further usage.
All images were processed and analyzed using Fiji ImageJ software. Mander’s overlap coefficient (Figure 1B–D; Figure 2B–F; Figure 4B–F; Figure 6E; S2B, D; S4B, D; S6D, F) analysis was done using the colocalization processing module of the Fiji ImageJ plugin. Distance from the plaque core (Figure 1B) was measured using the concentric circles plugin module. Fluorescence intensity of the green channel (Figure S3A-B), and the number of neurons positive for Aβ signals (Figure S3-D) were quantified using the processing module of Keyence software. Intensity analysis (Figure S4E-I) was performed by manually selecting the region of interest (ROI) and measuring the intensity of the individual channels in the selected area. RFP/GFP (Figure 6A) and LysoSensor Green/Blue (Figure 7A) ratiometric images were created by using the image calculator module. Intensity of green and red channel for a particular ROI was calculated and ratios of the individual values were computed (Figure 6B and S7A). For computing the number of mCherry^+GFP^± vesicles or per cell (Figure 6D and S7B), cell outline was drawn manually and number of vesicles per cell (nucleus count – DAPI) was calculated. Similarly, the number of perinuclear and peripheral LAMP2-positive lysosomes or percentage of LAMP2 compartments containing Aβ was computed using the concentric circle processing module (Figure 7D). Due to slight variability in transfection efficiency or the number of cells in different experimental set-ups, the readings from each experiment were averaged and normalized to the control cells from that particular set. Average values from each experiment were normalized to the respective controls in the same set. Values from independent experiments were then computed and values are represented as independent data points.

primary cortical neurons = assay: Immunocytochemistry colocalization of internalized Aβ with vesicular markers (Mander's overlap coefficient); format: cell-based, mouse; conditions: Aβ 500 nM, 4 h, mean ± S.D., n = 6, N = 3; for Mander's overlap coefficient, R, with EEA1-positive vesicles: Aβ stained with 82E1

Substance	Ratio of mCherry:GFP fluorescence intensities (SH-SY5Y cells; compared to control cells)	Mander's overlap coefficient, R, of Aβ with GFP-positive vesicles (SH-SY5Y cells)	Mander's overlap coefficient, R, of Aβ with mCherry-positive vesicles (SH-SY5Y cells)	Mander's overlap coefficient, R, with EEA1-positive vesicles (primary cortical neurons)	Mander's overlap coefficient, R, with CTSD (primary cortical neurons)	Mander's overlap coefficient, R, with LAMP2 (primary cortical neurons)	Mander's overlap coefficient, R, with LC3-positive vesicles (primary cortical neurons)	Mander's overlap coefficient, R, with RAB7-positive late endosomes (primary cortical neurons)	Number of mCherry+ GFP− vesicles per cell (SH-SY5Y cells)	Number of mCherry+ GFP+ vesicles per cell (SH-SY5Y cells; compared to control and to p-Ser26Aβ treated cells)
non-phosphorylated amyloid-β [npAβ, reference compound]	not significantly altered	0.40 ± 0.05	0.61 ± 0.04	0.43 ± 0.15	0.47 ± 0.09	0.45 ± 0.12	0.47 ± 0.09	0.44 ± 0.10	–	–
amyloid-β phosphorylated at serine residue 26 [p-Ser26Aβ]	–	0.30 ± 0.05	0.70 ± 0.05	0.51 ± 0.14	0.65 ± 0.10	0.65 ± 0.13	0.52 ± 0.09	0.62 ± 0.15	significantly higher number	–
amyloid-β phosphorylated at serine residue 8 [p-Ser8Aβ]	–	0.56 ± 0.10	0.57 ± 0.06	0.58 ± 0.18	0.30 ± 0.06	0.33 ± 0.08	0.64 ± 0.21	0.33 ± 0.05	significantly least	significantly higher
